Measured values as given in ChEMBL document CHEMBL1142861, “Septocylindrins A and B: peptaibols produced by the terrestrial fungus Septocylindrium sp. LL-Z1518” (2007).
Values after ≈ are worked out from the molar mass of the structure shown. Non-standard residues stand in square brackets, D forms with d. Residues, ends and D or L forms follow the SMILES beside them. *: point of attachment. X1 = OCCNC[C@H](Cc1ccccc1)N*; Aib = CC(C)(N)C(=O)O

What was measured:
Format in all cases: functional
Staphylococcus aureus [1] = assay: Antimicrobial activity against wild type Staphylococcus aureus by broth dilution method
Escherichia coli [2] = assay: Antimicrobial activity against membrane permeability mutant Escherichia coli imp by broth dilution method
Staphylococcus aureus [3] = assay: Antimicrobial activity against methicillin-resistant Staphylococcus aureus by broth dilution method
Enterococcus faecium = assay: Antimicrobial activity against vancomycin-resistant Enterococcus faecium by broth dilution method
Escherichia coli [4] = assay: Antimicrobial activity against wild type Escherichia coli by broth dilution method
Candida albicans = assay: Antimicrobial activity against Candida albicans by broth dilution method

Compound | MIC (Staphylococcus aureus [1]) [µg/mL] | MIC (Escherichia coli [2]) [µg/mL] | MIC (Staphylococcus aureus [3]) [µg/mL] | MIC (Enterococcus faecium) [µg/mL] | MIC (Escherichia coli [4]) [µg/mL] | MIC (Candida albicans) [µg/mL]
CC(=O)NC(C)(C)C(=O)N1CCC[C@H]1C(=O)NC(C)(C)C(=O)N[C@@H](C)C(=O)NC(C)(C)C(=O)N[C@@H](C)C(=O)N[C@@H](CCC(N)=O)C(=O)NC(C)(C)C(=O)N[C@H](C(=O)NC(C)(C)C(=O)NCC(=O)N[C@@H](CC(C)C)C(=O)NC(C)(C)C(=O)N1CCC[C@H]1C(=O)N[C@H](C(=O)NC(C)(C)C(=O)NC(C)(C)C(=O)N[C@@H](CCC(=O)O)C(=O)N[C@@H](CCC(N)=O)C(=O)N[C@H](CNCCO)Cc1ccccc1)C(C)C)C(C)C [septocylindrin A] (Ac-[Aib]P[Aib]A[Aib]AQ[Aib]V[Aib]GL[Aib]PV[Aib][Aib]EQ-X1) | 32 (≈ 15.9 µM) | 32 (≈ 15.9 µM) | 128 (≈ 63.8 µM) | 16 (≈ 7.97 µM) | > 128 | 32 (≈ 15.9 µM)
CC(=O)NC(C)(C)C(=O)N1CCC[C@H]1C(=O)NC(C)(C)C(=O)N[C@@H](C)C(=O)NC(C)(C)C(=O)N[C@@H](C)C(=O)N[C@@H](CCC(N)=O)C(=O)NC(C)(C)C(=O)N[C@H](C(=O)NC(C)(C)C(=O)NCC(=O)N[C@@H](CC(C)C)C(=O)NC(C)(C)C(=O)N1CCC[C@H]1C(=O)N[C@H](C(=O)NC(C)(C)C(=O)NC(C)(C)C(=O)N[C@@H](CCC(N)=O)C(=O)N[C@@H](CCC(N)=O)C(=O)N[C@H](CNCCO)Cc1ccccc1)C(C)C)C(C)C [septocylindrin B] (Ac-[Aib]P[Aib]A[Aib]AQ[Aib]V[Aib]GL[Aib]PV[Aib][Aib]QQ-X1) | 8 (≈ 3.99 µM) | 8 (≈ 3.99 µM) | 16 (≈ 7.97 µM) | 8 (≈ 3.99 µM) | > 128 | 16 (≈ 7.97 µM)
